Experimental data from patent publication US8802700B2 (Vertex Pharmaceuticals Incorporated, priority 2010, dated 2014).

These molecules were tested against T1, ΔF508-CFTR (Homo sapiens, UniProt P13569, DEL508-508) (assay: Membrane potential optical assay (FRET voltage-sensor dyes, VIPR), identification of potentiator compounds). Settings: Table 3; assay not given; read-out: % Activity (% Efficacy, relative efficacy).
T1 construct: expressed in transfected cells
Format: cell-based
In short: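 NIH3T3 mouse fibroblasts stably expressing ΔF508-CFTR, cultured 24 h at 27 °C, were loaded with FRET voltage dyes CC2-DMPE and DiSBAC2(3). Double-addition format: first addition of Cl⁻-free (gluconate) medium with or without compound; membrane-potential change read as fluorescence on VIPR II.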

T1 sequence (P13569 with tags, fused parts or gaps DEL508-508): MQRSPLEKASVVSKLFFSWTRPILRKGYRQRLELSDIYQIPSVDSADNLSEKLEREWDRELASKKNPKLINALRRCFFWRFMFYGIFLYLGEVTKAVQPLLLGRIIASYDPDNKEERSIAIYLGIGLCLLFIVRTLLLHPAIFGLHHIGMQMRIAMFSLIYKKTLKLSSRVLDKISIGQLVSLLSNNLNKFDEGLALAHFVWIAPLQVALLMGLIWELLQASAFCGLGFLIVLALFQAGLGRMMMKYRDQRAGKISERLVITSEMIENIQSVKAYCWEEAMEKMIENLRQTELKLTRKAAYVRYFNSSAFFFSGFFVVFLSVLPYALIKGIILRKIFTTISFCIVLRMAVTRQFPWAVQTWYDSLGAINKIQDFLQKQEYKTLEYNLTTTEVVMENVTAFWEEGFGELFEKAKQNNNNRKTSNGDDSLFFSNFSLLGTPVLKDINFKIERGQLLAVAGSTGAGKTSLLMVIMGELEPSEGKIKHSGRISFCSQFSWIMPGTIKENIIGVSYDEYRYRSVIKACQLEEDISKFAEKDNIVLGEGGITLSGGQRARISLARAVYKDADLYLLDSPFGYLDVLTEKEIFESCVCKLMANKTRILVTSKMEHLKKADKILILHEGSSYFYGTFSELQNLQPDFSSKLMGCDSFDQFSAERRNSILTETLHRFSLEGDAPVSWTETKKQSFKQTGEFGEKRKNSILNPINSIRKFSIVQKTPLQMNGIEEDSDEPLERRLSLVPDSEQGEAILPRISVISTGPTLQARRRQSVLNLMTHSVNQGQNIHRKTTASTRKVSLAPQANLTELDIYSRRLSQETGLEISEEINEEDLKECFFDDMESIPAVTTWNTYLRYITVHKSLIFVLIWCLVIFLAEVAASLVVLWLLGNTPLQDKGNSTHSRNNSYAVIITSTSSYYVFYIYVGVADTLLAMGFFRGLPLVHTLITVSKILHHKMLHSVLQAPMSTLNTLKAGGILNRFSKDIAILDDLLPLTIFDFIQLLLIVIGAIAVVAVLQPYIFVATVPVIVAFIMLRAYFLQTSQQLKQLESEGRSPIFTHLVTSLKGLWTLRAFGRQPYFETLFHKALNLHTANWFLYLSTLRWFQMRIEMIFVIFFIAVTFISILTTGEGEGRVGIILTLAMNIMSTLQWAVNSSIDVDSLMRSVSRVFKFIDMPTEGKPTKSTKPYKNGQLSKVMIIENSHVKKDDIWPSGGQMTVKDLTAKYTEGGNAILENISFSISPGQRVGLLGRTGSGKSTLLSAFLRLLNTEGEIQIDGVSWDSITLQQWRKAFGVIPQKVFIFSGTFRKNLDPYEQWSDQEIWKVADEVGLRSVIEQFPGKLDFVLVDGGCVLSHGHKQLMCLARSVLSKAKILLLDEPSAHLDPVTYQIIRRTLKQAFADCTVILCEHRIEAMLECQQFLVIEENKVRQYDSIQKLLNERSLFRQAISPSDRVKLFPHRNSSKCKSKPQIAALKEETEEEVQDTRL

Row | SMILES | Emax [%]
1 | Cc1cccc2[nH]cc(C(=O)Nc3ccc(N4CC(F)(F)C[C@H]4C)cc3C(F)(F)F)c(=O)c12 [Compound 667, (R)-N-(4-(4,4-difluoro-2-methylpyrrolidin-1-yl)-2-(trifluoromethyl)phenyl)-5-methyl-4-oxo-1,4-dihydroquinoline-3-carboxamide] | 25 to 100
2 | COc1ccccc1Oc1ccc(C(F)(F)F)cc1NC(=O)c1c[nH]c2ccccc2c1=O [Compound 3, N-[2-(2-methoxyphenoxy)-5-(trifluoromethyl)phenyl]-4-oxo-1H-quinoline-3-carboxamide] | 25 to 100
3 | CC(CO)(CO)c1ccc(NC(=O)c2c[nH]c3ccc(F)cc3c2=O)cc1 [Compound 627, 6-fluoro-N-[4-[2-hydroxy-1-(hydroxymethyl)-1-methyl-ethyl]phenyl]-4-oxo-1H-quinoline-3-carboxamide] | < 25
4 | COc1cccc(OC)c1-c1cc2cc[nH]c2cc1NC(=O)c1c[nH]c2ccccc2c1=O [Compound 404, N-[5-(2,6-dimethoxyphenyl)-1H-indol-6-yl]-4-oxo-1H-quinoline-3-carboxamide] | 25 to 100
5 | Cc1cccc(Oc2ncccc2NC(=O)c2c[nH]c3ccccc3c2=O)c1C [Compound 206, N-[2-(2,3-dimethylphenoxy)-3-pyridyl]-4-oxo-1H-quinoline-3-carboxamide] | 25 to 100
6 | COc1nc2ccccc2c(OC)c1C(=O)Nc1ccccc1C(C)(C)C [Compound 296, 2,4-dimethoxy-N-(2-tert-butylphenyl)-quinoline-3-carboxamide] | 25 to 100
7 | O=C(Nc1ccc(C(F)(F)F)c(O)c1)c1c[nH]c2cccc(O)c2c1=O [Compound 700, 5-hydroxy-N-[3-hydroxy-4-(trifluoromethyl)phenyl]-4-oxo-1H-quinoline-3-carboxamide] | 25 to 100
8 | CC(C)(C)OC(=O)Nc1ccc(C(C)(C)C)c(NC(=O)c2c[nH]c3ccccc3c2=O)c1 [Compound 353, [3-[(4-oxo-1H-quinolin-3-yl)carbonylamino]-4-tert-butyl-phenyl]aminoformic acid tert-butyl ester] | 25 to 100
9 | CCOc1ccc(NC(C)=O)cc1NC(=O)c1c[nH]c2ccccc2c1=O [Compound 132, N-(5-acetylamino-2-ethoxy-phenyl)-4-oxo-1H-quinoline-3-carboxamide] | < 25
10 | Nc1cc(NC(=O)c2c[nH]c3ccccc3c2=O)ccc1OC(F)(F)F [Compound 58, N-[3-amino-4-(trifluoromethoxy)phenyl]-4-oxo-1H-quinoline-3-carboxamide] | 25 to 100
11 | Cc1cc(C(C)(C)C)c(O)cc1NC(=O)c1c[nH]c2ccccc2c1=O [Compound 518, N-(5-hydroxy-2-methyl-4-tert-butyl-phenyl)-4-oxo-1H-quinoline-3-carboxamide] | 25 to 100
12 | CC(C)(C)c1cc(C(C)(C)C)c(NC(=O)c2c[nH]c3c(C(F)(F)F)cccc3c2=O)cc1O [Compound 580, N-(5-hydroxy-2,4-ditert-butyl-phenyl)-4-oxo-8-(trifluoromethyl)-1H-quinoline-3-carboxamide] | < 25
13 | COC(=O)c1ccc(-c2ccccc2NC(=O)c2c[nH]c3ccccc3c2=O)cc1 [Compound 166, 4-[2-[(4-oxo-1H-quinolin-3-yl)carbonylamino]phenyl]benzoic acid methyl ester] | 25 to 100
14 | CCC(CC)(c1cc(F)c(NC(=O)c2cnc3ccccc3c2O)cc1O)C(C)(C)C [Compound 153, N-[4-(1,1-diethyl-2,2-dimethyl-propyl)-2-fluoro-5-hydroxy-phenyl]-4-hydroxy-quinoline-3-carboxamide] | 25 to 100
15 | CCOC(=O)[C@H]1CCCN(c2ccc(NC(=O)c3c[nH]c4ccccc4c3=O)c(C(F)(F)F)c2)C1 [Compound 660, (S)-ethyl 1-(4-(4-oxo-1,4-dihydroquinoline-3-carboxamido)-3-(trifluoromethyl)phenyl)piperidine-3-carboxylate] | 25 to 100
16 | Cc1ccc2c(=O)c(C(=O)Nc3ccc(N4CCC[C@@H]4C)cc3C(F)(F)F)c[nH]c2c1 [Compound 607, (S)-7-methyl-N-(4-(2-methylpyrrolidin-1-yl)-2-(trifluoromethyl)phenyl)-4-oxo-1,4-dihydroquinoline-3-carboxamide] | 25 to 100
17 | CCOc1cccc(-c2cc(C(C)(C)C)c(O)cc2NC(=O)c2c[nH]c3ccccc3c2=O)c1 [Compound 43, N-[2-(3-ethoxyphenyl)-5-hydroxy-4-tert-butyl-phenyl]-4-oxo-1H-quinoline-3-carboxamide] | 25 to 100
18 | CCOC(=O)Nc1cc(NC(=O)c2c[nH]c3ccccc3c2=O)ccc1C(C)C [Compound 225, [2-isopropyl-5-[(4-oxo-1H-quinolin-3-yl)carbonylamino]phenyl]aminoformic acid ethyl ester] | 25 to 100
19 | CC1(c2ccc(NC(=O)c3c[nH]c4cccc(O)c4c3=O)cc2O)CCCCC1 [Compound 606, 5-hydroxy-N-[3-hydroxy-4-(1-methylcyclohexyl)-phenyl]-4-oxo-1H-quinoline-3-carboxamide] | < 25
20 | COc1ccc2[nH]cc(C(=O)Nc3ccc(N4[C@H](C)CC[C@H]4C)cc3C(F)(F)F)c(=O)c2c1 [Compound 685, N-(4-((2R,5R)-2,5-dimethylpyrrolidin-1-yl)-2-(trifluoromethyl)phenyl)-6-methoxy-4-oxo-1,4-dihydroquinoline-3-carboxamide] | 25 to 100

Second part, the molecule after the results:

Row | Emax [%] | SMILES
21 | < 25 | Cn1cnnc1-c1ccc(NC(=O)c2c[nH]c3ccccc3c2=O)cc1 [Compound 301, N-[4-(4-methyl-4H-1,2,4-triazol-3-yl)phenyl]-4-oxo-1H-quinoline-3-carboxamide]
22 | 25 to 100 | O=C(Nc1ccccc1-c1ccc(F)cc1F)c1c[nH]c2ccccc2c1=O [Compound 63, N-[2-(2,4-difluorophenyl)phenyl]-4-oxo-1H-quinoline-3-carboxamide]
23 | 25 to 100 | N#Cc1ccc(-c2ccccc2NC(=O)c2c[nH]c3ccccc3c2=O)s1 [Compound 93, N-[2-(5-cyano-2-thienyl)phenyl]-4-oxo-1H-quinoline-3-carboxamide]
24 | < 25 | Cn1cc(C(=O)Nc2ccccc2)c(=O)c2ccccc21 [Compound 468, 1-methyl-4-oxo-N-phenyl-1H-quinoline-3-carboxamide]
25 | 25 to 100 | COc1ccccc1-c1ccccc1NC(=O)c1c[nH]c2ccccc2c1=O [Compound 355, N-[2-(2-methoxyphenyl)phenyl]-4-oxo-1H-quinoline-3-carboxamide]
26 | 25 to 100 | COc1ccc(C)cc1NC(=O)c1c[nH]c2ccccc2c1=O [Compound 120, N-(2-methoxy-5-methyl-phenyl)-4-oxo-1H-quinoline-3-carboxamide]
27 | 25 to 100 | CC(C)(C)c1ccccc1NC(=O)c1c[nH]c2ccccc2c1=O [Compound 90, 4-oxo-N-(2-tert-butylphenyl)-1H-quinoline-3-carboxamide]
28 | 25 to 100 | O=C(Nc1cccc2cccnc12)c1c[nH]c2ccccc2c1=O [Compound 241, 4-oxo-N-(8-quinolyl)-1H-quinoline-3-carboxamide]
29 | < 25 | Cc1ccc2c(c1)c(=O)c(C(=O)Nc1ccccc1-c1ccccc1)cn2C [Compound 128, 1,6-dimethyl-4-oxo-N-(2-phenylphenyl)-1H-quinoline-3-carboxamide]
30 | 25 to 100 | CCC(C)c1ccccc1NC(=O)c1c[nH]c2ccccc2c1=O (stereo not drawn) [Compound 142, 4-oxo-N-(2-sec-butylphenyl)-1H-quinoline-3-carboxamide]
